# ± gives the expanded uncertainty stated by the source.
# Assay: xn = mol fraction of the nth substance listed
# Conditions: for viscosity: 101.33 kPa; for viscosity / binary diffusion coefficient: Liquid; for surface tension liquid-gas: Ring tensiometer; for binary diffusion coefficient: 101 kPa, Taylor dispersion method
smiles,measurement,setting,value
CCN(CC)CCO [(diethylamino)ethanol] + O,viscosity,"298.15 K, x1 = 0.1483",8.96 ± 0.14 mPa·s
same,viscosity,"298.15 K, x1 = 0.1603",9.677 ± 0.16 mPa·s
same,viscosity,"298.15 K, x1 = 0.1704",10.26 ± 0.17 mPa·s
same,viscosity,"298.15 K, x1 = 0.1905",11.31 ± 0.19 mPa·s
same,viscosity,"298.15 K, x1 = 0.2004",11.76 ± 0.2 mPa·s
same,viscosity,"298.15 K, x1 = 0.2104",12.22 ± 0.2 mPa·s
same,viscosity,"298.15 K, x1 = 0.22",12.66 ± 0.21 mPa·s
same,viscosity,"298.15 K, x1 = 0.2301",13.04 ± 0.22 mPa·s
same,viscosity,"298.15 K, x1 = 0.2401",13.42 ± 0.23 mPa·s
same,viscosity,"298.15 K, x1 = 0.253",13.84 ± 0.23 mPa·s
same,viscosity,"298.15 K, x1 = 0.2674",14.24 ± 0.24 mPa·s
same,viscosity,"298.15 K, x1 = 0.2701",14.25 ± 0.24 mPa·s
same,viscosity,"298.15 K, x1 = 0.2801",14.55 ± 0.25 mPa·s
same,viscosity,"298.15 K, x1 = 0.29",14.76 ± 0.25 mPa·s
same,viscosity,"298.15 K, x1 = 0.3022",14.98 ± 0.26 mPa·s
same,viscosity,"298.15 K, x1 = 0.35",15.43 ± 0.27 mPa·s
same,viscosity,"298.15 K, x1 = 0.3999",14.98 ± 0.26 mPa·s
same,viscosity,"298.15 K, x1 = 0.4507",14.58 ± 0.25 mPa·s
same,viscosity,"298.15 K, x1 = 0.5001",13.45 ± 0.23 mPa·s
same,viscosity,"298.15 K, x1 = 0.5504",12.29 ± 0.2 mPa·s
same,viscosity,"298.15 K, x1 = 0.6001",10.96 ± 0.18 mPa·s
same,viscosity,"298.15 K, x1 = 0.6514",9.672 ± 0.16 mPa·s
same,viscosity,"298.15 K, x1 = 0.7",8.576 ± 0.14 mPa·s
same,viscosity,"298.15 K, x1 = 0.7508",7.471 ± 0.12 mPa·s
same,viscosity,"298.15 K, x1 = 0.8001",6.597 ± 0.1 mPa·s
same,viscosity,"298.15 K, x1 = 0.8508",5.743 ± 0.09 mPa·s
same,viscosity,"298.15 K, x1 = 0.9001",5.063 ± 0.079 mPa·s
same,viscosity,"298.15 K, x1 = 0.9501",4.494 ± 0.07 mPa·s
same,viscosity,"298.15 K, x1 = 1",4.01 ± 0.062 mPa·s
same,surface tension liquid-gas,"303.15 K, x1 = 0.00104",60.06 ± 0.92 mN/m
same,surface tension liquid-gas,"303.15 K, x1 = 0.00111",59.95 ± 0.92 mN/m
same,surface tension liquid-gas,"303.15 K, x1 = 0.0013",59.24 ± 0.92 mN/m
same,surface tension liquid-gas,"303.15 K, x1 = 0.00336",51.86 ± 0.87 mN/m
same,surface tension liquid-gas,"303.15 K, x1 = 0.00503",50.47 ± 0.72 mN/m
same,surface tension liquid-gas,"303.15 K, x1 = 0.00679",46.5 ± 0.67 mN/m
same,surface tension liquid-gas,"303.15 K, x1 = 0.02372",39.92 ± 0.58 mN/m
same,surface tension liquid-gas,"303.15 K, x1 = 0.03998",35.96 ± 0.53 mN/m
same,surface tension liquid-gas,"303.15 K, x1 = 0.06011",34.47 ± 0.51 mN/m
same,surface tension liquid-gas,"303.15 K, x1 = 0.07276",33.87 ± 0.51 mN/m
same,surface tension liquid-gas,"303.15 K, x1 = 0.1253",32.48 ± 0.49 mN/m
same,surface tension liquid-gas,"303.15 K, x1 = 0.1749",30.78 ± 0.46 mN/m
same,surface tension liquid-gas,"303.15 K, x1 = 0.2503",30.81 ± 0.47 mN/m
same,surface tension liquid-gas,"303.15 K, x1 = 0.3515",29.72 ± 0.45 mN/m
same,surface tension liquid-gas,"303.15 K, x1 = 0.4018",29.34 ± 0.44 mN/m
same,surface tension liquid-gas,"303.15 K, x1 = 0.5038",29.22 ± 0.45 mN/m
same,surface tension liquid-gas,"303.15 K, x1 = 0.608",28.83 ± 0.44 mN/m
same,surface tension liquid-gas,"303.15 K, x1 = 0.712",28.65 ± 0.44 mN/m
same,surface tension liquid-gas,"303.15 K, x1 = 0.7503",28.3 ± 0.43 mN/m
same,surface tension liquid-gas,"303.15 K, x1 = 0.8542",27.91 ± 0.43 mN/m
same,surface tension liquid-gas,"303.15 K, x1 = 1",27.2 ± 0.42 mN/m
same,binary diffusion coefficient,"303.15 K, x1 = 0.00278",7.11e-10 m2/s
same,binary diffusion coefficient,"303.15 K, x1 = 0.00524",6.5e-10 m2/s
same,binary diffusion coefficient,"303.15 K, x1 = 0.00781",6.39e-10 m2/s
same,binary diffusion coefficient,"303.15 K, x1 = 0.01032",5.82e-10 m2/s
same,binary diffusion coefficient,"303.15 K, x1 = 0.01281",5.63e-10 m2/s
same,binary diffusion coefficient,"303.15 K, x1 = 0.01536",5.39e-10 m2/s
same,binary diffusion coefficient,"303.15 K, x1 = 0.01779",4.82e-10 m2/s
same,binary diffusion coefficient,"303.15 K, x1 = 0.02026",4.54e-10 m2/s
same,binary diffusion coefficient,"303.15 K, x1 = 0.02731",4.06e-10 m2/s
same,binary diffusion coefficient,"303.15 K, x1 = 0.0382",3.14e-10 m2/s
same,binary diffusion coefficient,"303.15 K, x1 = 0.05024",2.55e-10 m2/s
same,binary diffusion coefficient,"303.15 K, x1 = 0.07362",1.77e-10 m2/s
same,binary diffusion coefficient,"303.15 K, x1 = 0.09846",1.53e-10 m2/s
same,binary diffusion coefficient,"303.15 K, x1 = 0.1247",1.37e-10 m2/s
same,binary diffusion coefficient,"303.15 K, x1 = 0.1476",1.29e-10 m2/s
same,binary diffusion coefficient,"303.15 K, x1 = 0.1801",1.32e-10 m2/s
same,viscosity,"303.15 K, x1 = 0.01005",1.062 ± 0.016 mPa·s
same,viscosity,"303.15 K, x1 = 0.02016",1.333 ± 0.02 mPa·s
same,viscosity,"303.15 K, x1 = 0.03976",2.025 ± 0.031 mPa·s
same,viscosity,"303.15 K, x1 = 0.05015",2.464 ± 0.038 mPa·s
same,viscosity,"303.15 K, x1 = 0.06028",2.899 ± 0.044 mPa·s
same,viscosity,"303.15 K, x1 = 0.07004",3.354 ± 0.051 mPa·s
same,viscosity,"303.15 K, x1 = 0.08051",3.86 ± 0.06 mPa·s
same,viscosity,"303.15 K, x1 = 0.08982",4.289 ± 0.066 mPa·s
same,viscosity,"303.15 K, x1 = 0.11",5.269 ± 0.082 mPa·s
same,viscosity,"303.15 K, x1 = 0.12",5.728 ± 0.089 mPa·s
same,viscosity,"303.15 K, x1 = 0.1301",6.216 ± 0.097 mPa·s
same,viscosity,"303.15 K, x1 = 0.1401",6.673 ± 0.1 mPa·s
same,viscosity,"303.15 K, x1 = 0.1511",7.151 ± 0.11 mPa·s
same,viscosity,"303.15 K, x1 = 0.1603",7.537 ± 0.12 mPa·s
same,viscosity,"303.15 K, x1 = 0.1704",7.965 ± 0.12 mPa·s
same,viscosity,"303.15 K, x1 = 0.1897",8.687 ± 0.14 mPa·s
same,viscosity,"303.15 K, x1 = 0.1998",9.003 ± 0.14 mPa·s
same,viscosity,"303.15 K, x1 = 0.2104",9.393 ± 0.15 mPa·s
same,viscosity,"303.15 K, x1 = 0.22",9.709 ± 0.15 mPa·s
same,viscosity,"303.15 K, x1 = 0.2301",9.979 ± 0.16 mPa·s
same,viscosity,"303.15 K, x1 = 0.2401",10.26 ± 0.17 mPa·s
same,viscosity,"303.15 K, x1 = 0.2498",10.48 ± 0.17 mPa·s
same,viscosity,"303.15 K, x1 = 0.2674",10.84 ± 0.18 mPa·s
same,viscosity,"303.15 K, x1 = 0.2701",10.86 ± 0.18 mPa·s
same,viscosity,"303.15 K, x1 = 0.2801",11.05 ± 0.18 mPa·s
same,viscosity,"303.15 K, x1 = 0.29",11.21 ± 0.18 mPa·s
same,viscosity,"303.15 K, x1 = 0.3003",11.25 ± 0.18 mPa·s
same,viscosity,"303.15 K, x1 = 0.35",11.5 ± 0.19 mPa·s
same,viscosity,"303.15 K, x1 = 0.3997",11.47 ± 0.19 mPa·s
same,viscosity,"303.15 K, x1 = 0.433",11.12 ± 0.18 mPa·s
same,viscosity,"303.15 K, x1 = 0.4995",10.24 ± 0.17 mPa·s
same,viscosity,"303.15 K, x1 = 0.5498",9.382 ± 0.15 mPa·s
same,viscosity,"303.15 K, x1 = 0.5997",8.485 ± 0.13 mPa·s
same,viscosity,"303.15 K, x1 = 0.6499",7.581 ± 0.12 mPa·s
same,viscosity,"303.15 K, x1 = 0.7001",6.746 ± 0.11 mPa·s
same,viscosity,"303.15 K, x1 = 0.7498",5.97 ± 0.093 mPa·s
same,viscosity,"303.15 K, x1 = 0.8",5.299 ± 0.083 mPa·s
same,viscosity,"303.15 K, x1 = 0.8499",4.701 ± 0.073 mPa·s
same,viscosity,"303.15 K, x1 = 0.9",4.196 ± 0.065 mPa·s
same,viscosity,"303.15 K, x1 = 0.95",3.742 ± 0.058 mPa·s
same,viscosity,"303.15 K, x1 = 1",3.375 ± 0.052 mPa·s
